≈ marks a conversion by molar mass, not a printed value.
How the values were obtained:
[1] = target: T1, SARS-CoV-2 M^Pro (Severe acute respiratory syndrome coronavirus 2, UniProt P0DTD1); assay: biochemical
[2] = in vitro; settings: human
[3] = target: SARS-CoV-1 M^Pro (Severe acute respiratory syndrome coronavirus, UniProt P0C6X7); assay: biochemical
[4] = system: SARS-CoV-2 WA.1 replicon in Vero ACE2 TMPRSS2; assay: microbe, parasite or virus in culture; assay type: cell-based; settings: Severe acute respiratory syndrome coronavirus 2, Vero, read-out: Replicon replication in Vero ACE2 TMPRSS2 EC50: WA.1
[5] = in vitro; settings: PAMPA, pH 7.4
[6] = system: SARS-CoV-2 WA.1 (icSARS-CoV-2-mNG) in A549-ACE2^h; assay: microbe, parasite or virus in culture; assay type: cell-based; settings: Severe acute respiratory syndrome coronavirus 2, read-out: Viral replication in A549-ACE2^h EC50: WA.1
[7] = target: SARS-CoV-2 M^Pro (Cys^145) (Severe acute respiratory syndrome coronavirus 2, UniProt P0DTD1); assay type: binding
[8] = system: SARS-CoV-2 BA.2.86.1 replicon in Vero ACE2 TMPRSS2; assay: microbe, parasite or virus in culture; assay type: cell-based; settings: Severe acute respiratory syndrome coronavirus 2, Vero, read-out: Replicon replication in Vero ACE2 TMPRSS2 EC50: BA.2.86.1
[9] = in vitro; settings: human, microsomes, pH 7.4
[10] = in vitro; settings: plasma
[11] = system: human cytochrome P450 (CYP) isoforms
[12] = target: T1, SARS-CoV-2 M^Pro; assay: biochemical; remark: listed apart in the source
[13] = target: T1, SARS-CoV-2 M^Pro; assay type: biochemical
[14] = in vitro; settings: mouse, microsomes, pH 7.4
[15] = physchem; settings: pH 7.4, aqueous buffer, kinetic from dmso stock
[16] = male, CD-1, mouse, in vivo
[17] = target: CYP2C8 (Homo sapiens, UniProt P10632); settings: 10 μM
Chain of CYP2C8 (P10632 whole entry): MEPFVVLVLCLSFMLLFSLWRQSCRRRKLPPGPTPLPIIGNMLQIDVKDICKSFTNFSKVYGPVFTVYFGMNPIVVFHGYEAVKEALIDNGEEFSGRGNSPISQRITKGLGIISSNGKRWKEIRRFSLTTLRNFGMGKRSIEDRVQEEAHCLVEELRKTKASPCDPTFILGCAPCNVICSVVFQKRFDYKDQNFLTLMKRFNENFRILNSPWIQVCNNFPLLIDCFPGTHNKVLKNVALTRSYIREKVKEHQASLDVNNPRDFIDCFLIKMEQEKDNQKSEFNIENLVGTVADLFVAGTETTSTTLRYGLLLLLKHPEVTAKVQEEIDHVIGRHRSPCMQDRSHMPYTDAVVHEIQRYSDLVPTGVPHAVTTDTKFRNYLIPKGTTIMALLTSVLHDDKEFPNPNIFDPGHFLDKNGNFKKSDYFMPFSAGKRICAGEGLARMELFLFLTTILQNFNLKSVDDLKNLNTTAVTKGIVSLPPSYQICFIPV

[18] = in vivo; settings: mouse
[19] = system: P-gp (MDR1); assay: in vitro; settings: dog
[20] = in vivo
[21] = in vivo; settings: male, CD-1, mouse; for AUC(0-t): AUClast
[22] = system: HCoV Beta OC43; assay: microbe, parasite or virus in culture; assay type: cell-based; set-up: SI90 / SI50: unit not given beside the values
[23] = system: HCoV Alpha 229E; assay: organism not typed; assay type: cell-based, HCoV 229E; set-up: SI50 / SI90: unit not given beside the values
[24] = system: Rhabdomyosarcoma
[25] = system: Huh7
[26] = system: SARS-CoV-2 B.1.617.2 (delta); assay type: cell-based; set-up: SI50 / SI90: unit not given beside the values
[27] = system: SARS-CoV-2 BA.2 (omicron); assay: microbe, parasite or virus in culture; assay type: cell-based; set-up: SI50 / SI90: unit not given beside the values
[28] = system: MERS-CoV EMC; assay: microbe, parasite or virus in culture; assay type: cell-based; set-up: SI50 / SI90: unit not given beside the values
[29] = system: SARS-CoV Urbani; assay: microbe, parasite or virus in culture; assay type: cell-based; set-up: SI90 / SI50: unit not given beside the values
[30] = pH 7.4, plasma protein binding (PPB)
[31] = Middle East respiratory syndrome-related coronavirus, Vero C1008
[32] = Severe acute respiratory syndrome coronavirus, Vero C1008

O=C1CCN(Cc2csc(Cl)c2)C(=O)N1Cc1ccc[nH]c1=O [AVI-3570]
IC50 [1]: 1500 nM
CC50 [2]: > 100000 nM
viability at 100 µM [2]: 100%

O=C1CCN(Cc2cc(Cl)cs2)C(=O)N1Cc1ccc[nH]c1=O [AVI-3318]
IC50 [1]: 4600 nM
CC50 [2]: > 100000 nM
viability at 100 µM [2]: 88.9%

O=C1CCN(Cc2cccc(Cl)c2)C(=O)N1Cc1ccc[nH]c1=O [AVI-3993]
IC50 [1]: 8500 nM

C#CCn1c(-c2cccc(Cl)c2)c(-n2nnc3ccccc32)c(=O)n(-c2cncc3ccccc23)c1=O [AVI-4692]
IC50 [3]: 120 nM
EC50 [4]: 26 nM
Papp [5]: 31.8 ×10⁻⁶ cm/s
EC50 [6]: 6.8 nM
covalent adduct by whole protein MS [7]: mass shifts consistent with modification at a single site
IC50 [1]: 37 nM
EC50 [8]: 27 nM
half-life [9]: > 2 h
fraction unbound [10, 30]: < 0.01
CYP inhibition, result in words ([11]; 10 μM): somewhat more potent inhibitor of both CYP2C8 and CYP3A4
kinact/KI [12]: 27000 M⁻¹ s⁻¹
M^Pro activity after dialysis [13]: activity was not regained
half-life [14]: > 2 h

O=c1cc(-c2cccc(Cl)c2)[nH]c(=O)n1-c1cncc2ccccc12 [AVI-4301]
Papp [5]: 31.8 ×10⁻⁶ cm/s
IC50 [1]: 6400 nM
CC50 [2]: > 100000 nM
viability at 100 µM [2]: 100%

C#CCn1c(C)c(-n2nnc3cc(F)c(F)cc32)c(=O)n(-c2cncc3ccccc23)c1=O [AVI-4773]
solubility [15]: 431 µM (≈ 192 µg/mL)
IC50 [3]: 95 nM
EC50 [4]: 60 nM
Mouse F [16]: 110
free concentration in plasma [16]: 4.045 µM
AUClast ([16]; po, 50 mg/kg): 94700 ng·h/mL
Plasma T½ ([16]; po, 50 mg/kg): 13 h
EC50 [6]: 19 nM
CYP2C8 inhibition [17]: ~ 45%
Kp [18]: ~0.08
covalent adduct by whole protein MS [7]: mass shifts consistent with modification at a single site
EC50 [8]: 49 nM
half-life [9]: > 2 h
fraction unbound ([10]; pH 7.4, PPB): 0.19
fraction unbound [10, 30]: 0.17
Papp B→A ([19]; MDCK-MDR1): 70.8 ×10⁻⁶ cm/s
Papp A→B ([19]; MDCK-MDR1, MDCK AB): 17.8 ×10⁻⁶ cm/s
inhibition across the CYP panel ([11]; human, pH 7.4): ≤ 25%
exposure in BALF ([20]; mouse, po): ~ 4400 nM
bioavailability ([21]; F): 110%
MRT inf ([21]; iv, 10 mg/kg): 2.06 h
clearance ([21]; iv, 10 mg/kg): 9.57 mL/min/kg
half-life ([21]; iv, 10 mg/kg): 1.22 h
AUC(0-inf) ([21]; iv, 10 mg/kg, AUCINF): 17400 ng·h/mL
AUC(0-t) ([21]; iv, 10 mg/kg): 17200 ng·h/mL
Vd ([21]; iv, 10 mg/kg, Vss): 1.18 L/kg
bioavailability ([21]; oral bioavailability (%F)): > 100%
half-life ([21]; po, 50 mg/kg): 13 h
AUC(0-inf) ([21]; po, 50 mg/kg, AUCINF): 273000 ng·h/mL
AUC(0-inf) ([21]; po, 50 mg/kg, AUCinf): 272000 ng·h/mL
AUC(0-t) ([21]; po, 50 mg/kg): 94700 ng·h/mL
Cmax ([21]; po, 50 mg/kg, CMax): 14900 ng/mL
Cmax ([21]; po, 50 mg/kg, Cmax): 14900 ng/mL
Tmax ([21]; po, 50 mg/kg, TMax): 0.5 h
Tmax ([21]; po, 50 mg/kg, Tmax): 0.5 h
M^Pro activity after dialysis [13]: activity was not regained
half-life [14]: > 2 h

O=c1nc(NO)ccn1[C@@H]1O[C@H](CO)[C@@H](O)[C@H]1O [EIDD-1931, reference compound]
SI50 [22]: 170
SI90 [22]: 190
EC50 ([22]; read-out: EC50): 35 nM
EC90 ([22]; read-out: EC90): 32 nM
SI50 [23]: > 23
SI90 [23]: > 27
EC50 ([23]; read-out: EC50): 440 nM
EC90 ([23]; read-out: EC90): 370 nM
CC50 [24]: 6100 nM
CC50 [25]: > 10000 nM
EC50 [26]: 170 nM
EC90 [26]: 50 nM
SI50 [26]: 210
SI90 [26]: 720
SI50 [27]: 810
SI90 [27]: 1000
EC50 ([27]; read-out: EC50): 53 nM
EC90 ([27]; read-out: EC90): 43 nM

O=C1CCN(Cc2cccc(Cl)c2)C(=O)N1c1cncc2ccccc12 [AVI-3779]
Papp [5]: 23.9 ×10⁻⁶ cm/s
IC50 [1]: 660 nM
M^Pro inhibition, result in words [1]: submicromolar potencies
CC50 [2]: > 100000 nM
viability at 100 µM [2]: 100%

O=C1CCN(Cc2cccc(F)c2)C(=O)N1c1cncc2ccccc12 [AVI-3780]
Papp [5]: 19.6 ×10⁻⁶ cm/s
IC50 [1]: 800 nM
M^Pro inhibition, result in words [1]: submicromolar potencies
CC50 [2]: > 100000 nM
viability at 100 µM [2]: 100%

O=C1CCN(Cc2csc(Cl)c2)C(=O)N1c1cncc2ccccc12 [AVI-3778]
Papp [5]: 26.4 ×10⁻⁶ cm/s
IC50 [1]: 850 nM
M^Pro inhibition, result in words [1]: submicromolar potencies
CC50 [2]: > 100000 nM
viability at 100 µM [2]: 95.7%

O=c1[nH]c(-c2cccc(Cl)c2)c(-n2nnc3ccccc32)c(=O)n1-c1cncc2ccccc12 [AVI-4303]
Papp [5]: 6.6 ×10⁻⁶ cm/s
IC50 [1]: 300 nM
CC50 [2]: > 100000 nM
viability at 100 µM [2]: 92.3%

O=C1CCN(Cc2cccs2)C(=O)N1Cc1ccc[nH]c1=O [AVI-1084]
CC50 [2]: > 100000 nM
viability at 100 µM [2]: 100%

Cn1cnc(Cn2c(=O)[nH]/c(=N\c3cc4cn(C)nc4cc3Cl)n(Cc3cc(F)c(F)cc3F)c2=O)n1 [ensitrelvir, reference compound]
Brain, Mean ([20]; CD1, mouse): 47.9 ng/g

O=C1CCN(Cc2ccsc2)C(=O)N1Cc1ccc[nH]c1=O [AVI-3320]
IC50 [1]: 23000 nM
CC50 [2]: > 100000 nM
viability at 100 µM [2]: 100%

CCC(CC)COC(=O)[C@H](C)N[P@](=O)(OC[C@H]1O[C@@](C#N)(c2ccc3c(N)ncnn23)[C@H](O)[C@@H]1O)Oc1ccccc1 [remdesivir, reference compound]
SI50 [28]: 540
SI90 [28]: 51
EC50 [28, 31]: 3.7 nM
EC90 [28, 31]: 39 nM
SI50 [29]: > 83
SI90 [29]: > 71
EC50 [29, 32]: 120 nM
EC90 [29, 32]: 140 nM

From article PMC12017303 (Science Advances, 2025)
